Marks after values point to notes of the source that are not given here.
What was measured:
Type in all cases: cell-based
microbial growth = experiment: In-can challenge test of dicyandiamide as adjuvant for MIT (Table 3); conditions: for degree of microbial growth (plate ranking) / passing result of challenge test: Dicy 0
Text: However, using a combination of MIT and dicyandiamide can allow for effective microbial control at MIT concentrations as low as 20 ppm.
(§1) Example data provided in Tables 1, 2 and 3 should be understood as indicating the degree of microbial growth observed for a given data point unless otherwise indicated. In particular, each plate is ranked from 0 through 5c (i.e., one of 0, 1, 2, 3, 4, 5, or 5c) according to the degree of observed microbial growth, where: a “0” ranking indicates no growth; a “1” ranking indicates one (1) through five (5) observed colony forming unit (cfu), i.e., the plate was very lightly contaminated; a “2” ranking indicates six (6) through fifteen (15) cfu, i.e., the plate was lightly contaminated; a “3” ranking indicates sixteen (16) through thirty (30) cfu, i.e., the plate was moderately contaminated; a “4” ranking indicates thirty-one (31) through forty-five (45) cfu, i.e., the plate was heavily contaminated; a “5” ranking indicates greater than (45) cfu, i.e., the plate was severely contaminated; and a “5c” ranking indicates confluent growth, i.e., the plate was very severely contaminated. Thus, for instance, Table 1, Challenge 1 at 24 h for BIT 50 ppm has a value of 5 indicating greater than forty-five (45) cfu were observed. As another example for illustration, Table 1, Challenge 1 at 24 h for dicyandiamide 5,000 ppm+BIT 50 ppm has a value of 1 indicating one (1) through five (5) cfu was observed.

[1] = test system: Pseudomonas aeruginosa, Escherichia coli, Enterobacter cloacae, Acinetobacter calcoaceticus; experiment: In-can challenge test, modified ASTM D2574-97 (Table 1)
Experimental: (§2) Various formulations were made in accordance with the present disclosure and tested for performance. In one challenge test, the efficacy of dicyandiamide as an adjuvant for BIT was evaluated using modified ASTM D2574-97 “Standard Test Method for Resistance of Emulsion Paints in the Container to Attack by Microorganisms” with higher inoculation volumes and frequency. A standard consortium of four (4) bacterial populations: Pseudomonas aeruginosa, Escherichia coli, Enterobacter cloacae, Acinetobacter calcoaceticus was used to inoculate three (3) different samples at ten percent (10%), five percent (5%), or two and a half percent (2.5%) of the sample size. At twenty-four (24) hours and seventy-two (72) hours after each inoculation, a portion of each sample was streaked on tryptic soy agar. A dilution plate count was performed at the last seventy-two (72) hour time point.
as §1

[2] = test system: Pseudomonas aeruginosa, Escherichia coli, Enterobacter cloacae, Acinetobacter calcoaceticus; experiment: Repeat in-can challenge test, same conditions (Table 2); conditions: Dicyandiamide 5,000 ppm
Experimental: as §2, §1

## Cn1sccc1=O [MIT − 50, 2-methyl-4-isothiazolin-3-one]
Microbial growth; MIT 15 ppm as active (MIT-50 30 ppm), 1st challenge, 24
  degree of microbial growth (plate ranking): 5 (a “5” ranking indicates greater than (45) cfu, i.e., the plate was severely contaminated)
Microbial growth; MIT 15 ppm as active (MIT-50 30 ppm), 1st challenge, 72
  degree of microbial growth (plate ranking): 5 (a “5” ranking indicates greater than (45) cfu, i.e., the plate was severely contaminated)
Microbial growth; MIT 15 ppm as active (MIT-50 30 ppm), 2nd challenge, 72
  degree of microbial growth (plate ranking): 5 (a “5” ranking indicates greater than (45) cfu, i.e., the plate was severely contaminated)
Microbial growth; MIT 15 ppm as active (MIT-50 30 ppm), 3rd challenge, 24
  degree of microbial growth (plate ranking): 5 (a “5” ranking indicates greater than (45) cfu, i.e., the plate was severely contaminated)
Microbial growth; MIT 15 ppm as active (MIT-50 30 ppm), 3rd challenge, 72
  degree of microbial growth (plate ranking): 5 (a “5” ranking indicates greater than (45) cfu, i.e., the plate was severely contaminated)
Microbial growth; MIT 20 ppm as active (MIT-50 40 ppm), 1st challenge, 24
  degree of microbial growth (plate ranking): 5 (a “5” ranking indicates greater than (45) cfu, i.e., the plate was severely contaminated)
Microbial growth; MIT 20 ppm as active (MIT-50 40 ppm), 1st challenge, 72
  degree of microbial growth (plate ranking): 5 (a “5” ranking indicates greater than (45) cfu, i.e., the plate was severely contaminated)
Microbial growth; MIT 20 ppm as active (MIT-50 40 ppm), 2nd challenge, 72
  degree of microbial growth (plate ranking): 5 (a “5” ranking indicates greater than (45) cfu, i.e., the plate was severely contaminated)
Microbial growth; MIT 20 ppm as active (MIT-50 40 ppm), 3rd challenge, 24
  degree of microbial growth (plate ranking): 5 (a “5” ranking indicates greater than (45) cfu, i.e., the plate was severely contaminated)
Microbial growth; MIT 20 ppm as active (MIT-50 40 ppm), 3rd challenge, 72
  degree of microbial growth (plate ranking): 5 (a “5” ranking indicates greater than (45) cfu, i.e., the plate was severely contaminated)
Microbial growth; MIT 25 ppm as active (MIT-50 50 ppm), 1st challenge, 24
  degree of microbial growth (plate ranking): 5 (a “5” ranking indicates greater than (45) cfu, i.e., the plate was severely contaminated)
Microbial growth; MIT 25 ppm as active (MIT-50 50 ppm), 1st challenge, 72
  degree of microbial growth (plate ranking): 2 (a “2” ranking indicates six (6) through fifteen (15) cfu, i.e., the plate was lightly contaminated)
Microbial growth; MIT 25 ppm as active (MIT-50 50 ppm), 2nd challenge, 72
  degree of microbial growth (plate ranking): 5 (a “5” ranking indicates greater than (45) cfu, i.e., the plate was severely contaminated)
Microbial growth; MIT 25 ppm as active (MIT-50 50 ppm), 3rd challenge, 24
  degree of microbial growth (plate ranking): 5 (a “5” ranking indicates greater than (45) cfu, i.e., the plate was severely contaminated)
Microbial growth; MIT 25 ppm as active (MIT-50 50 ppm), 3rd challenge, 72
  degree of microbial growth (plate ranking): 5 (a “5” ranking indicates greater than (45) cfu, i.e., the plate was severely contaminated)
Microbial growth; MIT 30 ppm as active (MIT-50 60 ppm)
  passing result of challenge test: MIT − 50 60 ppm (30)*
Microbial growth; MIT 30 ppm as active (MIT-50 60 ppm), 1st challenge, 24
  degree of microbial growth (plate ranking): 5 (a “5” ranking indicates greater than (45) cfu, i.e., the plate was severely contaminated)
Microbial growth; MIT 30 ppm as active (MIT-50 60 ppm), 1st challenge, 72
  degree of microbial growth (plate ranking): 0
Microbial growth; MIT 30 ppm as active (MIT-50 60 ppm), 2nd challenge, 72
  degree of microbial growth (plate ranking): 5 (a “5” ranking indicates greater than (45) cfu, i.e., the plate was severely contaminated)
Microbial growth; MIT 30 ppm as active (MIT-50 60 ppm), 3rd challenge, 24
  degree of microbial growth (plate ranking): 5 (a “5” ranking indicates greater than (45) cfu, i.e., the plate was severely contaminated)
Microbial growth; MIT 30 ppm as active (MIT-50 60 ppm), 3rd challenge, 72
  degree of microbial growth (plate ranking): 0
Microbial growth; MIT 35 ppm as active (MIT-50 70 ppm)
  passing result of challenge test: MIT − 50 70 ppm (35)*
Microbial growth; MIT 35 ppm as active (MIT-50 70 ppm), 1st challenge, 24
  degree of microbial growth (plate ranking): 5 (a “5” ranking indicates greater than (45) cfu, i.e., the plate was severely contaminated)
Microbial growth; MIT 35 ppm as active (MIT-50 70 ppm), 1st challenge, 72
  degree of microbial growth (plate ranking): 0
Microbial growth; MIT 35 ppm as active (MIT-50 70 ppm), 2nd challenge, 72
  degree of microbial growth (plate ranking): 0
Microbial growth; MIT 35 ppm as active (MIT-50 70 ppm), 3rd challenge, 24
  degree of microbial growth (plate ranking): 5 (a “5” ranking indicates greater than (45) cfu, i.e., the plate was severely contaminated)
Microbial growth; MIT 35 ppm as active (MIT-50 70 ppm), 3rd challenge, 72
  degree of microbial growth (plate ranking): 0
Microbial growth; MIT alone, no guanidine enhancer
  MIT concentration giving passing results: ≥ 30 ppm

## N#CN=C(N)N [Dicyandiamide, 2-cyanoguanidine]
[1]; Dicyandiamide 5,000 ppm, Challenge 1 (10%), 24 h
  degree of microbial growth (plate ranking): 5c
[1]; Dicyandiamide 5,000 ppm, Challenge 1 (10%), 72 h
  degree of microbial growth (plate ranking): 5c
[1]; Dicyandiamide 5,000 ppm, Challenge 2 (5%), 72 h
  degree of microbial growth (plate ranking): 5c
[1]; Dicyandiamide 5,000 ppm, Challenge 3 (2.5%), 24 h
  degree of microbial growth (plate ranking): 5c
[1]; Dicyandiamide 5,000 ppm, Challenge 3 (2.5%), 72 h
  dilution plate count: 8.0 × 10^6
[1]; Dicyandiamide 10,000 ppm, Challenge 1 (10%), 24 h
  degree of microbial growth (plate ranking): 5c
[1]; Dicyandiamide 10,000 ppm, Challenge 1 (10%), 72 h
  degree of microbial growth (plate ranking): 1 (a “1” ranking indicates one (1) through five (5) observed colony forming unit (cfu), i.e., the plate was very lightly contaminated)
[1]; Dicyandiamide 10,000 ppm, Challenge 2 (5%), 72 h
  degree of microbial growth (plate ranking): 5 (a “5” ranking indicates greater than (45) cfu, i.e., the plate was severely contaminated)
[1]; Dicyandiamide 10,000 ppm, Challenge 3 (2.5%), 24 h
  degree of microbial growth (plate ranking): 5 (a “5” ranking indicates greater than (45) cfu, i.e., the plate was severely contaminated)
[1]; Dicyandiamide 10,000 ppm, Challenge 3 (2.5%), 72 h
  dilution plate count: 4.2 × 10^6
[1]; Table 1, not in combination with BIT
  efficacy of dicyandiamide alone compared to the blank: no significant difference compared to the blank
[2]; Challenge 1 (10%), 24 h
  degree of microbial growth (plate ranking): 5c
[2]; Challenge 1 (10%), 72 h
  degree of microbial growth (plate ranking): 5c
[2]; Challenge 2 (5%), 72 h
  degree of microbial growth (plate ranking): 5c
[2]; Challenge 3 (2.5%), 24 h
  degree of microbial growth (plate ranking): 5c
[2]; Challenge 3 (2.5%), 72 h
  dilution plate count: 2.4 × 10^7

— US20240188566A1, “Biocidal Composition and Method” (ARXADA, LLC, priority 2021, published 2024)
